Data published in US20260250325A1, “Antiviral Polypeptide Membrane Fusion Inhibitor, and Preparation Method and Application Thereof” (priority 2025, published 2026).
Read-outs that look alike come from different tables or passages of the source. Where a SMILES comes first, the peptide text is derived from it. [ ]: non-standard residue; d: D form. The star is where a group is joined. ξ: configuration not given here. Succinyl(4-O-cholesteryl) = CC(C)CCC[C@@H](C)[C@H]1CC[C@H]2[C@@H]3CC=C4C[C@@H](OC(=O)CCC(=O)*)CC[C@]4(C)[C@H]3CC[C@]12C; ξD = NC(CC(=O)O)C(=O)O

Assays:
[1] = tested on: RSV A long virus strain; type: cell-based
Protocol: In this embodiment, an RSV-A long virus strain was used as an infection virus in the present disclosure. The anti-RSV activity of the synthesized polypeptide was determined through CPE detection.
The inhibitory activity of the compounds of Table 1-1-Table 1-5, positive polypeptide in Table 1-11, and positive control T-118 against the RSV-A long virus strain was detected.
(§1) Human Epithelial Pharyngeal Carcinoma Cells (HEp-2) were from the American Type Culture Collection (ATCC), with a catalog number CCL-23. The cells were cultured in a DMEM culture solution in which 10% fetal bovine serum, 1% sodium pyruvate, 1% nonessential amino acids, 2 mM glutamine, 100 U/mL penicillin, and 100 μg/mL streptomycin were added. The RSV A long virus strain was from the ATCC, with a catalog number VR-26.
This study used a plaque reduction experiment to detect the in-vitro activity of a test sample against the RSV A long virus strain. The test sample and a control compound were tested at 8 concentrations in duplicated wells. The HEp-2 cells were digested with trypsin and then diluted to a concentration of 300,000 cells per milliliter by using an experimental culture solution. The diluted cells were added to a 96-well cell test board, with 100 μL per well, corresponding to 30000 cells per well. The cells were cultured overnight in a 37° C. incubator with 5% CO2. On the second day, the test sample was diluted in an experimental culture medium at a fold ratio. The sample diluted at a fold ratio and an equal volume of virus (100 PFU per well) were well mixed and incubated at 37° C. in 5% CO2 for 1 h. Then, the culture solution in the 96-well cell test board was discarded, the sample virus mixed solution (200 μL) was added to the 96-well cell culture plate, and incubated at 37° C. in 5% CO2 for 2 hours. After 2 h, the sample virus mixed solution was discarded, and 200 μL of maintenance culture medium containing 0.8% CMC and the corresponding concentration of the test sample was added. A cell control (cells, without compound treatment or viral infection) and a viral control (cell infection virus, without compound treatment) were set. The cells were cultured for 1 day in the 37° C. incubator with 5% CO2. One day after viral infection, the culture medium was discarded, the cells were fixed with 4% paraformaldehyde, and then permeabilization was performed with 0.5% Triton X-100. After the plate was washed with DPBS, an RSV-specific antibody (RSV antibody, diluted 1:3000) was added and incubated at 37° C. for 1 h. Then, a secondary antibody (donkey anti-goat IgG, diluted 1:500) and incubated at 37° C. for 1 h. The secondary antibody was discarded, a TrueBlue solution was added, dyeing was performed for 10 min; and the plate was washed with running water and then air-dried, and the number of spots in each well was counted by using a microplate imaging counter. Raw data was used for calculating the antiviral activity of the samples.
(§2) The raw data for plaque counts and cell viability tests were used for analyzing the antiviral activity and cytotoxicity of the test samples, respectively. A calculation formula was shown as follows.
% inhibition rate=100−(sample value-cell control average value)/(virus control average value-cell control average value)×100%
(§3) Non-linear fitting analysis was performed on the inhibition rate of the sample by using GraphPad Prism (version 10), so as to calculate the IC50 and CC50 values for the sample.
IC50: in an in-vitro antiviral activity experiment, IC50 represented an inhibition ability indicator of a compound to be tested against the Hep-2 cells infected by the RSV A long virus strain.

[2] = Cytotoxicity test in HEp-2 cells (CCK8 cell viability); type: cell-based; settings: human
Protocol: as §1
A cytotoxicity test and an antiviral test were performed in parallel. The HEp-2 cells were inoculated in the microplate at a density of 30,000 cells per well, and cultured overnight in the 37° C. incubator with 5% CO2. On the next day, the diluted test sample was added. The cell control (cells, without compound treatment) and a culture solution control (culture solution only, without cell or compound treatment) were set. A final concentration of DMSO in the culture solution was 0.5%. The cells were cultured for 1 day in the 37° C. incubator with 5% CO2. Cell viability was detected by using a cell viability detection kit CCK8.
as §2
cell survival rate=(sample value-culture medium control average value)/(cell control average value-culture medium control average value)×100
as §3
CC50: in the in-vitro antiviral activity experiment, CC50 was used to measure the toxicity of the compound to be tested to the Hep-2 cells. To be precise, when the compound to be tested was at a specific concentration, 50% of the Hep-2 cells was caused to die, and this concentration was defined as the CC50. A fitting formula was log (inhibitor) vs. response-Variable slope (four parameters).

[3] = HEp-2 cells, CCK8, 1 day, read-out: CC50

| IC50 [1] | Compound | CC50 at 1 day [2] | IC50 ([1]; RSV A long virus strain, HEp-2 cells, plaque reduction, 1 day, read-out: IC50) | CC50 at 1 day [2, 3] |
| --- | --- | --- | --- | --- |
| 1.36 µM | CC[C@H](C)[C@H](NC(=O)[C@H](CO)NC(=O)[C@H](C)NC(=O)[C@H](CC(=O)O)NC(=O)[C@H](Cc1ccccc1)NC(C)=O)C(=O)N[C@@H](CCC(=O)O)C(=O)N[C@@H](CCC(=O)O)C(=O)N[C@H](C(=O)N[C@@H](CC(N)=O)C(=O)N[C@@H](CCCNC(=N)N)C(=O)N[C@@H](CCCNC(=N)N)C(=O)N[C@H](C(=O)N[C@@H](CCC(=O)O)C(=O)N[C@@H](CCC(=O)O)C(=O)N[C@@H](CO)C(=O)N[C@@H](CC(C)C)C(=O)N[C@@H](CCCNC(=N)N)C(=O)N[C@@H](CCCNC(=N)N)C(=O)N[C@H](C(=O)N[C@@H](CCC(=O)O)C(=O)N[C@@H](CCC(=O)O)C(=O)N[C@@H](CO)C(=O)N[C@@H](CC(=O)O)C(=O)N[C@@H](CCCNC(=N)N)C(=O)N[C@@H](CCCNC(=N)N)C(=O)N[C@@H](CC(C)C)C(=O)N[C@@H](CCC(=O)O)C(=O)N[C@H](C(=O)N[C@@H](CC(N)=O)C(=O)N[C@@H](CCCCN)C(=O)N[C@@H](CCCCN)C(=O)N[C@@H](C)C(N)=O)C(C)C)[C@@H](C)CC)[C@@H](C)CC)C(C)C [Compound 1] (Ac-FDASIEEVNRRIEESLRRIEESDRRLEVNKKA-NH2) | > 8 µM |  |  |
| > 8 µM | CC[C@H](C)[C@H](NC(=O)[C@H](CCCCN)NC(=O)[C@H](CCCCN)NC(=O)[C@H](CC(C)C)NC(=O)[C@@H](NC(=O)[C@H](CCC(=O)O)NC(=O)[C@H](CCC(=O)O)NC(=O)[C@@H](NC(=O)[C@H](CCCCN)NC(=O)[C@H](CCC(=O)O)NC(=O)[C@H](CC(N)=O)NC(=O)[C@@H](NC(=O)[C@H](CCC(=O)O)NC(=O)[C@H](CC(N)=O)NC(=O)[C@@H](NC(=O)[C@H](CCCCN)NC(=O)[C@H](CCC(N)=O)NC(=O)[C@H](CC(N)=O)NC(=O)[C@H](Cc1ccccc1)NC(=O)[C@H](CCC(=O)O)NC(=O)[C@H](CC(=O)O)NC(=O)[C@H](CC(=O)O)NC(C)=O)[C@@H](C)CC)C(C)C)[C@@H](C)CC)[C@@H](C)CC)C(=O)N[C@@H](CCC(=O)O)C(=O)N[C@@H](CCC(=O)O)C(=O)N[C@@H](CO)C(=O)N[C@@H](CC(=O)O)C(=O)N[C@@H](CCCNC(=N)N)C(=O)N[C@@H](CCCCN)C(=O)N[C@@H](CC(C)C)C(=O)N[C@@H](CCC(=O)O)C(=O)N[C@@H](CCC(=O)O)C(=O)N[C@@H](CO)C(=O)N[C@@H](CC(=O)O)C(=O)N[C@@H](CCCCN)C(=O)N[C@@H](CCCCN)C(=O)N[C@@H](C)C(N)=O [Compound 2] (Ac-DDEFNQKINEVNEKIEEILKKIEESDRKLEESDKKA-NH2) | > 8 µM |  |  |
|  | CC[C@H](C)[C@H](NC(=O)[C@H](CCCCN)NC(=O)[C@H](CCCCN)NC(=O)[C@H](CC(C)C)NC(=O)[C@H](CO)NC(=O)[C@H](CCC(=O)O)NC(=O)[C@H](CCC(=O)O)NC(=O)[C@@H](NC(=O)[C@H](CCCCN)NC(=O)[C@H](CCCCN)NC(=O)[C@H](CC(N)=O)NC(=O)[C@@H](NC(=O)[C@H](CCC(=O)O)NC(=O)[C@H](CCC(=O)O)NC(=O)[C@@H](NC(=O)[C@H](CCCCN)NC(=O)[C@H](CCCCN)NC(=O)[C@H](CCCCN)NC(=O)[C@H](CC(=O)O)NC(=O)[C@H](Cc1ccccc1)NC(=O)[C@H](CCC(=O)O)NC(=O)[C@H](CC(=O)O)NC(C)=O)[C@@H](C)CC)C(C)C)[C@@H](C)CC)C(=O)N[C@@H](CCC(=O)O)C(=O)N[C@@H](CCC(=O)O)C(=O)N[C@@H](CO)C(=O)N[C@@H](CC(=O)O)C(=O)N[C@@H](CCCCN)C(=O)N[C@@H](CCCCN)C(=O)N[C@@H](CC(C)C)C(=O)N[C@@H](CCC(=O)O)C(=O)N[C@@H](CCC(=O)O)C(=O)N[C@H](C(N)=O)C(C)C [Compound 3] (Ac-DEFDKKKIEEVNKKIEESLKKIEESDKKLEEV-NH2) |  | 4.43 µM | > 8 µM |
|  | CC[C@H](C)[C@H](NC(=O)[C@H](CCCCN)NC(=O)[C@H](CCCCN)NC(=O)[C@H](CC(C)C)NC(=O)[C@H](CO)NC(=O)[C@H](CCC(=O)O)NC(=O)[C@H](CCC(=O)O)NC(=O)[C@@H](NC(=O)[C@H](CCCCN)NC(=O)[C@H](CCCCN)NC(=O)[C@H](CC(N)=O)NC(=O)[C@@H](NC(=O)[C@H](CCC(=O)O)NC(=O)[C@H](CCC(=O)O)NC(=O)[C@@H](NC(=O)[C@H](CCCCN)NC(=O)[C@H](CCCCN)NC(=O)[C@H](CCCCN)NC(=O)[C@H](CC(=O)O)NC(=O)[C@H](Cc1ccccc1)NC(=O)[C@H](CCC(=O)O)NC(=O)C(CC(=O)O)NC(C)=O)[C@@H](C)CC)C(C)C)[C@@H](C)CC)C(=O)N[C@@H](CCC(=O)O)C(=O)N[C@@H](CCC(=O)O)C(=O)N[C@@H](CO)C(=O)N[C@@H](CC(=O)O)C(=O)N[C@@H](CCCCN)C(=O)N[C@@H](CCCCN)C(=O)N[C@@H](CC(C)C)C(=O)N[C@@H](CCC(=O)O)C(=O)N[C@@H](CCC(=O)O)C(=O)N[C@H](C(=O)NCC(=O)N[C@@H](CO)C(=O)NCC(=O)N[C@@H](CO)C(=O)NCC(=O)N[C@@H](CCCCNC(=O)CCC(=O)O[C@H]1CC[C@@]2(C)C(=CC[C@H]3[C@@H]4CC[C@H]([C@H](C)CCCC(C)C)[C@@]4(C)CC[C@@H]32)C1)C(N)=O)C(C)C (some centres unmarked) [Compound 18] (Ac-[ξD]EFDKKKIEEVNKKIEESLKKIEESDKKLEEVGSGSGK(Succinyl(4-O-cholesteryl))-NH2) |  |  | 6.4 µM |
|  | CC[C@H](C)[C@H](NC(=O)[C@H](CCCCN)NC(=O)[C@H](CCCCN)NC(=O)[C@H](CC(C)C)NC(=O)[C@H](CO)NC(=O)[C@H](CCC(=O)O)NC(=O)[C@H](CCC(=O)O)NC(=O)[C@@H](NC(=O)[C@H](CCCCN)NC(=O)[C@H](CCCCN)NC(=O)[C@H](CC(N)=O)NC(=O)[C@@H](NC(=O)[C@H](CCC(=O)O)NC(=O)[C@H](CCC(=O)O)NC(=O)[C@@H](NC(=O)[C@H](CCCCN)NC(=O)[C@H](CCCCN)NC(=O)[C@H](CCCCN)NC(=O)[C@H](CC(=O)O)NC(=O)[C@H](Cc1ccccc1)NC(=O)[C@H](CCC(=O)O)NC(=O)[C@H](CC(=O)O)NC(C)=O)[C@@H](C)CC)C(C)C)[C@@H](C)CC)C(=O)N[C@@H](CCC(=O)O)C(=O)N[C@@H](CCC(=O)O)C(=O)N[C@@H](CO)C(=O)N[C@@H](CC(=O)O)C(=O)N[C@@H](CCCCN)C(=O)N[C@@H](CCCCN)C(=O)N[C@@H](CC(C)C)C(=O)N[C@@H](CCC(=O)O)C(=O)N[C@@H](CCC(=O)O)C(=O)N[C@H](C(=O)N[C@@H](CCC(=O)O)C(=O)N[C@@H](C)C(=O)N[C@@H](C)C(=O)N[C@@H](C)C(=O)N[C@@H](CCCCN)C(=O)N[C@@H](CCCCNC(=O)CCC(=O)O[C@H]1CC[C@@]2(C)C(=CC[C@H]3[C@@H]4CC[C@H]([C@H](C)CCCC(C)C)[C@@]4(C)CC[C@@H]32)C1)C(N)=O)C(C)C [Compound 22] (Ac-DEFDKKKIEEVNKKIEESLKKIEESDKKLEEVEAAAKK(Succinyl(4-O-cholesteryl))-NH2) |  |  | 3.7 µM |
